Results on 2 compounds are retold here after US20230321017A1, “ACIDIC CANNABINOIDS AND USES THEREOF FOR ENHANCING FEMALE SEXUAL FUNCTION OR TREATING FEMALE SEXUAL DISORDERS” (Vella Bioscience, Inc., priority 2022, published 2023).

“Also recorded” adds a separate entry of the source.

Data set [1] relates to rat proximal vaginal smooth muscle tissue. Briefly: In vitro isometric tension, isolated organ bath: relaxation of EFS-induced contractions of proximal vagina strips. The note with it: for relaxation of EFS-induced contractions of proximal vagina strips compared to the vehicle control: 10 min incubation, two-way ANOVA; for pharmacological relaxant effect on rat proximal vaginal smooth muscle tissue (dose dependence): figure legend, 1, 10 and 100 µg/mL. The text has this: (§1) The following in vitro methodology was utilized to examine the concentration-dependent response of rat vaginal tissue, both proximal and distal, to CBDA and CBD following contraction by electrical field stimulation (similar to efferent neurostimulation in vivo).
(§2) Intact female Sprague-Dawley rats were anesthetized and vagina harvested. A maximum of eight vaginal strips (4 proximal and 4 distal) were obtained from each rat in circular direction and mounted in organ chambers filled with an oxygenated physiological salt solution.
(§3) Strips were excised from the tissue samples and connected to force transducers for isometric tension recording. Organ baths were filled with Krebs buffer maintained at 37° C. and bubbled with 95% O2 and 5% CO2, pH 7.4.
(§4) After the equilibration period, the strips were primed first by the addition to the organ bath of KCI (100 mM, 10 min) and then after a washing step, by stimulation to EFS (electrical parameters: 20 Hz, 3 ms, 10 s, 300 mA). After this priming period, the strips were washed and a baseline frequency response curve (FRC) was obtained (3 ms, 10 s, 300 mA, frequency at 1, 2, 4, 8, 16, 32, and 48 Hz, every 2 minutes). Then, 6 strips (3 proximal and 3 distal) were incubated with vehicle for 10 minutes before applying a second FRC. The remaining 2 strips (one proximal and one distal) served as a time-controls. After a washing step, a third FRC was applied after the incubation of the test compound at 1 µg/mL for a period of 10 min. This was repeated with the concentration of 10 µg/mL, and 100 µg/mL.
(§5) The experiments were performed following the general procedures described in Examples 1 and 2. The data are mean ± SEM of N experiments using vaginal strips from N different rats. p = ns, * p < 0.05, ** p < 0.01, *** p < 0.001, **** p < 0.0001, two-way ANOVA.
(§6) The experiments were performed following the general procedures described in Examples 1 and 2. The data are mean ± SEM of N experiments using vaginal strips from N different rats; p = ns, * p < 0.05, ** p < 0.01, *** p < 0.001, **** p < 0.0001, two-way ANOVA.
(§7) The comparison plots of the pharmacological relaxant effects of CBD and CBDA on rat vaginal smooth muscle tissue are shown in FIGS. 3, 4, and 5. Also, shown are the results of the evaluation of the differences in effects exerted by CBD and CBDA for statistical significance. The data are mean ± SEM of N experiments using vaginal strips from N different rats; p = ns, * p < 0.05, ** p < 0.01, *** p < 0.001, **** p < 0.0001, two-way ANOVA.

Data set [2] deals with rat distal vaginal smooth muscle tissue. Kind of data set: In vitro isometric tension, isolated organ bath: relaxation of EFS-induced contractions of distal vagina strips. The note with it: for relaxation of EFS-induced contractions of distal vagina strips compared to the vehicle control: 10 min incubation, two-way ANOVA; for pharmacological relaxant effect on rat distal vaginal smooth muscle tissue (dose dependence): figure legend, 1, 10 and 100 µg/mL.
Source text: as §1, §2, §3, §4, §5, §6, §7

A further data set deals with cyclooxygenase isoforms. The note with it: background statement, selectivity controversial; cited from earlier work.
In a further data set the test system is vaginal smooth muscle. The note with it: earlier study WO2021091908A1; cited from earlier work.
Data set [3] concerns rat vaginal smooth muscle. Kind of data set: Relaxation of precontracted rat vaginal smooth muscle (summary statement). The conditions noted are these: dose-dependent manner; tissue region not specified.
Source text: as §1, §2, §3
as §4, with “After a washing step, a third FRC was applied after the incubation of the test compound at 1 µg/mL for a period of 10 min. This was repeated with the concentration of 10 µg/mL, and 100 µg/mL.” left out

Data set [4] can be described thus: pKa estimate by comparison to olivetolic acid. The class given is physicochemical. The note with it: estimated by comparison to olivetolic acid; not reported.
The conditions of data set [5]: background statement; cited from earlier work.

Consider `C=C(C)[C@@H]1CCC(C)=C[C@H]1c1c(O)cc(CCCCC)cc1O` [CBD, (-)-trans-cannabidiol, reference compound], for which the “relaxation of EFS-induced contractions of proximal vagina strips compared to the vehicle control” value in data set [1] (10 µg/mL) and in data set [1] (100 µg/mL) was “statistically-significant relaxation” in each case. In addition, the “pharmacological relaxant effect on rat proximal vaginal smooth muscle tissue (dose dependence)” value in data set [1] was “statistically significant, dose-dependent pharmacological relaxant effect”. Moreover, the “relaxation of EFS-induced contractions of distal vagina strips compared to the vehicle control” value in data set [2] (1 µg/mL), in data set [2] (10 µg/mL) and in data set [2] (100 µg/mL) was “statistically-significant relaxation; also recorded: statistically significant relaxation” throughout. The “pharmacological relaxant effect on rat distal vaginal smooth muscle tissue (dose dependence)” value in data set [2] is “statistically significant, dose-dependent pharmacological relaxant effect”. In the data set on cyclooxygenase isoforms, the “activity against cyclooxygenase (COX-1/COX-2)” value is on record as “much weaker or no activity”. For the same compound, in the data set on vaginal smooth muscle, the “relaxation of vaginal smooth muscle” value is recorded as “statistically-significant relaxation”.
The term pKa denotes the negative logarithm of the acid dissociation constant. As to `C=C(C)[C@@H]1CCC(C)=C[C@H]1c1c(O)cc(CCCCC)c(C(=O)O)c1O` [CBDA, (1′R,2′R)-2,6-dihydroxy-5′-methyl-4-pentyl-2′-(prop-1-en-2-yl)-1′,2′,3′,4′-tetrahydro[1,1′-biphenyl]-3-carboxylic acid], the “pharmacological relaxant effect of CBDA compared with CBD, proximal vaginal smooth muscle” value in data set [1] (1 µg/mL, FIG. 3A) is “stronger”; in data set [1] (10 µg/mL, FIG. 4A) it was “stronger”; in data set [1] (100 µg/mL, FIG. 5A), “stronger”. Also, the “pharmacological relaxant effect on rat proximal vaginal smooth muscle tissue (dose dependence)” value in data set [1] is given as “statistically significant, dose-dependent pharmacological relaxant effect”. Moreover, the “pharmacological relaxant effect of CBDA compared with CBD, distal vaginal smooth muscle” value was “no statistically significant difference” in data set [2] (1 µg/mL, FIG. 3B); “stronger” in data set [2] (10 µg/mL, FIG. 4B); “stronger” in data set [2] (100 µg/mL, FIG. 5B). The “relaxation of EFS-induced contractions of distal vagina strips compared to the vehicle control” value in data set [2] (10 µg/mL) and in data set [2] (100 µg/mL) was “statistically-significant relaxation” throughout. Moreover, the “pharmacological relaxant effect on rat distal vaginal smooth muscle tissue (dose dependence)” value in data set [2] is given as “statistically significant, dose-dependent pharmacological relaxant effect”. Besides, the “effectiveness at relaxing a precontracted rat vaginal smooth muscle, relative to CBD” value in data set [3] is “significantly more effective than CBD”. Further, in data set [4], the pKa was around 3.4. For the same compound, in the data set with cyclooxygenase isoforms, the “activity against cyclooxygenase (COX-1/COX-2)” value was “inhibitor of cyclooxygenase isoforms”. Moreover, the “permeability relative to CBD” value in data set [5] is recorded as “substantially higher”.
